Source: ChEMBL document CHEMBL5724914, “Linking interpersonal differences in gut microbiota composition and drug biotransformation activity” (2024)

Key:
[1] = The drug is tested on Z-001 corresponding to mouse gut metagenome with ENA study accession number: PRJEB37062 and ENA sample accession number: ERS12561801 for biotransformation under anaerobic condition. The drug concentrations were measured over 9 timepoints collected between 0 and 24 hours of incubation by liquid-chromatography-coupled mass spectrometry (LC–MS); details: 2 µM
[2] = human gut metagenome, 24 h, 2 µM
[3] = human gut metagenome, 24 h, 2 µM; remark: listed apart in the source
[4] = The drug is tested on Z-014 corresponding to rat gut metagenome with ENA study accession number: PRJEB37062 and ENA sample accession number: ERS12561814 for biotransformation under anaerobic condition. The drug concentrations were measured over 9 timepoints collected between 0 and 24 hours of incubation by liquid-chromatography-coupled mass spectrometry (LC–MS); details: 2 µM
[5] = The drug is tested on WLS-086 corresponding to human gut metagenome with ENA study accession number: PRJEB37062 and ENA sample accession number: ERS12561752 for biotransformation under anaerobic condition. The drug concentrations were measured over 9 timepoints collected between 0 and 24 hours of incubation by liquid-chromatography-coupled mass spectrometry (LC–MS); details: 2 µM
[6] = human gut metagenome, 24 h, 2 µM; remark: listed apart in the source
[7] = The drug is tested on WLS-052 corresponding to human gut metagenome with ENA study accession number: PRJEB37062 and ENA sample accession number: ERS12561747 for biotransformation under anaerobic condition. The drug concentrations were measured over 9 timepoints collected between 0 and 24 hours of incubation by liquid-chromatography-coupled mass spectrometry (LC–MS); details: 2 µM
[8] = The drug is tested on WLS-370 corresponding to human gut metagenome with ENA study accession number: PRJEB37062 and ENA sample accession number: ERS12561793 for biotransformation under anaerobic condition. The drug concentrations were measured over 9 timepoints collected between 0 and 24 hours of incubation by liquid-chromatography-coupled mass spectrometry (LC–MS); details: 2 µM
[9] = The drug is tested on Z-007 corresponding to rat gut metagenome with ENA study accession number: PRJEB37062 and ENA sample accession number: ERS12561807 for biotransformation under anaerobic condition. The drug concentrations were measured over 9 timepoints collected between 0 and 24 hours of incubation by liquid-chromatography-coupled mass spectrometry (LC–MS); details: 2 µM
[10] = human gut metagenome, 24 h, 2 µM; remark: listed apart in the source
[11] = The drug is tested on Z-026 corresponding to metagenome with ENA study accession number: PRJEB37062 and ENA sample accession number: ERS12561825 for biotransformation under anaerobic condition. The drug concentrations were measured over 9 timepoints collected between 0 and 24 hours of incubation by liquid-chromatography-coupled mass spectrometry (LC–MS); details: 2 µM
[12] = human gut metagenome, 24 h, 2 µM; remark: listed apart in the source
[13] = human gut metagenome, 24 h, 2 µM; remark: listed apart in the source
[14] = human gut metagenome, 24 h, 2 µM; remark: listed apart in the source
[15] = The drug is tested on WLS-077 corresponding to human gut metagenome with ENA study accession number: PRJEB37062 and ENA sample accession number: ERS12561750 for biotransformation under anaerobic condition. The drug concentrations were measured over 9 timepoints collected between 0 and 24 hours of incubation by liquid-chromatography-coupled mass spectrometry (LC–MS); details: 2 µM
[16] = human gut metagenome, 24 h, 2 µM; remark: listed apart in the source
[17] = human gut metagenome, 24 h, 2 µM; remark: listed apart in the source
[18] = human gut metagenome, 24 h, 2 µM; remark: listed apart in the source
[19] = The drug is tested on WLS-010 corresponding to human gut metagenome with ENA study accession number: PRJEB37062 and ENA sample accession number: ERS12561743 for biotransformation under anaerobic condition. The drug concentrations were measured over 9 timepoints collected between 0 and 24 hours of incubation by liquid-chromatography-coupled mass spectrometry (LC–MS); details: 2 µM
[20] = human gut metagenome, 24 h, 2 µM; remark: listed apart in the source
Further: call rule not given here.

| Compound | Bacterial Biotransformation [1] | Bacterial Biotransformation [2] | Bacterial Biotransformation [3] | Bacterial Biotransformation [4] | Bacterial Biotransformation [5] | Bacterial Biotransformation [6] | Bacterial Biotransformation [7] | Bacterial Biotransformation [8] | Bacterial Biotransformation [9] | Bacterial Biotransformation [10] | Bacterial Biotransformation [11] | Bacterial Biotransformation [12] | Bacterial Biotransformation [13] | Bacterial Biotransformation [14] | Bacterial Biotransformation [15] | Bacterial Biotransformation [16] | Bacterial Biotransformation [17] | Bacterial Biotransformation [18] | Bacterial Biotransformation [19] | Bacterial Biotransformation [20] |
| --- | --- | --- | --- | --- | --- | --- | --- | --- | --- | --- | --- | --- | --- | --- | --- | --- | --- | --- | --- | --- |
| CC(=O)O[C@]1(C(C)=O)CC[C@H]2[C@@H]3C=C(C)C4=CC(=O)CC[C@]4(C)[C@H]3CC[C@@]21C [MEGESTROL ACETATE] | Compound metabolized | Compound metabolized | Compound metabolized | Compound NOT metabolized | Compound metabolized | Compound metabolized | Compound metabolized | Compound metabolized | Compound metabolized | Compound metabolized | Compound metabolized | Compound metabolized | Compound metabolized | Compound metabolized | Compound metabolized | Compound metabolized | Compound metabolized | Compound metabolized | Compound metabolized | Compound metabolized |
| CC12CC3CC(C)(C1)CC(N)(C3)C2 [MEMANTINE] | Compound NOT metabolized | Compound NOT metabolized | Compound metabolized | Compound NOT metabolized | Compound NOT metabolized | Compound NOT metabolized | Compound NOT metabolized | Compound NOT metabolized | Compound NOT metabolized | Compound NOT metabolized | Compound NOT metabolized | Compound NOT metabolized | Compound NOT metabolized | Compound NOT metabolized | Compound NOT metabolized | Compound NOT metabolized | Compound NOT metabolized | Compound NOT metabolized | Compound NOT metabolized | Compound NOT metabolized |
| Cc1cc(C)cc(OCC2CNC(=O)O2)c1 (stereo not given) [METAXALONE] | Compound NOT metabolized | Compound metabolized | Compound metabolized | Compound NOT metabolized | Compound metabolized | Compound NOT metabolized | Compound metabolized | Compound metabolized | Compound NOT metabolized | Compound metabolized | Compound metabolized | Compound metabolized | Compound NOT metabolized | Compound metabolized | Compound metabolized | Compound metabolized | Compound metabolized | Compound NOT metabolized | Compound metabolized | Compound NOT metabolized |
| COC(=O)C(c1ccccc1)C1CCCCN1 (stereo not given) [METHYLPHENIDATE] | Compound metabolized | Compound NOT metabolized | Compound metabolized | Compound NOT metabolized | Compound NOT metabolized | Compound NOT metabolized | Compound NOT metabolized | Compound NOT metabolized | Compound NOT metabolized | Compound NOT metabolized | Compound NOT metabolized | Compound NOT metabolized | Compound NOT metabolized | Compound metabolized | Compound NOT metabolized | Compound metabolized | Compound metabolized | Compound NOT metabolized | Compound NOT metabolized | Compound NOT metabolized |
| CN1CCN2c3ccccc3Cc3ccccc3C2C1 (stereo not given) [MIANSERIN] | Compound NOT metabolized | Compound metabolized | Compound metabolized | Compound NOT metabolized | Compound metabolized | Compound NOT metabolized | Compound NOT metabolized | Compound NOT metabolized | Compound NOT metabolized | Compound NOT metabolized | Compound NOT metabolized | Compound NOT metabolized | Compound NOT metabolized | Compound metabolized | Compound NOT metabolized | Compound NOT metabolized | Compound NOT metabolized | Compound metabolized | Compound NOT metabolized | Compound NOT metabolized |
